These results are taken from article PMC8958505, “Discovery of Potential Neuroprotective Agents against Paclitaxel-Induced Peripheral Neuropathy” (Journal of Medicinal Chemistry, 2022).

Structures can show the parent of a compound that is named as a salt. Where two headings read alike, the source gives them in different places.

In the experiment the test system is mouse primary DRG neurons. Nature of the experiment: Neurite outgrowth assay of DRG neurons (image-based HCS) against paclitaxel-induced neurotoxicity. It counts as cell-based. As to conditions: for activation at 1 µM: Mus musculus, DRG neuron; for protective efficacy against paclitaxel-induced neurotoxicity (in words): pretreated, + 50 nM paclitaxel. The protocol:
All these 19 compounds were then subjected to the neurite outgrowth assay of dorsal root ganglion (DRG) neurons paired with an image-based HCS to analyze whether they had neuroprotective potential. Quantification of neurite outgrowth under different regimens is shown in Figure 3, wherein DRG neurons incubated in 50 nM paclitaxel could cause 60% reduction in neurite outgrowth compared to the control (no drug treatment). […] Taken together, CN016 is selected as a promising lead for further development.
Primary cortical or DRG cells were fixed with 4% paraformaldehyde for 15 min following compound and paclitaxel treatment. After washing with PBS, the fixed cells were permeabilized with PBS containing 0.05% Triton X-100 for 20 min and then blocked with commercial blocking buffer (#GTX30963; GeneTex, USA) at room temperature for 1 h. Subsequently, the cortical cells were stained for the extending processes and synaptic puncta by using anti-MAP2 (#MBS502140, 1:500; Mybiosource, USA) and anti-synaptophysin (#ab32127, 1:500; Abcam, UK) overnight. DRG cells were stained for the neurite and neuron nucleus by using anti-β III tubulin (#D71G9, 1:600; Cell Signaling, USA) and anti-NeuN monoclonal antibody (#MAB377, 1:400; Millipore, USA) overnight. On the second day, the samples were washed for 30 min with wash buffer and incubated with secondary antibodies (Alexa-488, 647 1:600; Thermo Fisher, USA) and 4 μg/mL Hoechst 33258 (#94403-1ML, 1:100; Merck, USA) at room temperature for 1 h. In the initial experiments of screening the potential neuroprotective compound for CIPN, ImageXpress^Micro (IXM) high-content imaging system (Molecular Devices, USA) driven by MetaXpress software was used. Images of treated cells were automatically acquired by using a 10× objective. Twenty-one images per well were taken in each of three channels (DAPI, FITC, and Cy5) to create a whole view of the entire neural network. The integrity of the neural network was evaluated using TIF images by importing them into MetaXpress software for analysis using the module for multiparameter, such as Neurite Outgrowth, Cell Scoring, and Transfluor. Furthermore, the score of synaptogenesis was analyzed in AcuityXpress software (Molecular Devices, USA).

Where [1] appears, read: Table 1, A: neurite outgrowth (% of control) of test compound 1000 nM + paclitaxel 50 nM, B: paclitaxel 50 nM alone, DRG neurons, read-out: Neuroprotection rate = (A-B)±S.E.M [%].
Setting [2] is: supplementary CSV, test compound 1000 nM, read-out: A-B (A: neurite outgrowth (% of control) of test compound (1000 nM) + paclitaxel (50 nM), B: of paclitaxel (50 nM)).
The mark [3] stands for this setting: Table S2, test compound 1000 nM + paclitaxel 50 nM minus paclitaxel 50 nM, read-out: Neuroprotection rate = (A-B) ± S.E.M [%].

Consider `O=P(O)(O)CCN1CCC(Nc2cc(N3CCOCC3)nc(NCc3cn(CCO)nn3)n2)CC1` [CN020, (2-(4-((2-(((1-(2-Hydroxyethyl)-1H-1,2,3-triazol-4-yl)methyl)amino)-6-morpholinopyrimidin-4-yl)amino)piperidin-1-yl)ethyl)phosphonic Acid Hydrobromide Salt], for which the activation at 1 µM reads like this: under setting [1], 8 to 11%; under setting [2], 8%.
On to `O=P(O)(O)CCN1CCC(Nc2cc(N3CCS(=O)(=O)CC3)nc(NCc3cn(CCCO)nn3)n2)CC1` [CN024, {2-[4-(6-(1,1-Dioxo-1l6-thiomorpholin-4-yl)-2-{[1-(3-hydroxy-propyl)-1H-[1,2,3]triazol-4-ylmethyl]-amino}-pyrimidin-4-ylamino)-piperidin-1-yl]-ethyl}-phosphonic Acid Hydrobromide Salt], for which the activation at 1 µM was 7 ± 0.84% under setting [1] and 7% under setting [2].
On to `O=P(O)(O)CCN1CCC(Nc2cc(N3CCCCC3)nc(NCc3cn(CCCO)nn3)n2)CC1` [CN022, {2-[4-(2-{[1-(3-Hydroxy-propyl)-1H-[1,2,3]triazol-4-ylmethyl]-amino}-6-piperidin-1-yl-pyrimidin-4-ylamino)-piperidin-1-yl]-ethyl}-phosphonic Acid Hydrobromide Salt], for which the activation at 1 µM reads like this: under setting [1], 6 ± 0.78%; under setting [2], 6%.
On to `COC(=O)CCN1CCC(Nc2cc(N3CCOCC3)nc(NCCCCCCO)n2)CC1` [CN017, Methyl 3-(4-((2-((6-Hydroxyhexyl)amino)-6-morpholinopyrimidin-4-yl)amino)piperidin-1-yl)propanoate], for which the activation at 1 µM is 1 ± 0.51% under setting [3] and 1% under setting [2]. For the same compound, the “protective efficacy against paclitaxel-induced neurotoxicity (in words)” value (from here on “protective efficacy”) (DRG neurons) was “inactive”.
As to `O=C(O)Cn1cc(CNc2nc(NC3CCN(Cc4ccccc4)CC3)cc(N3CCOCC3)n2)nn1` [CN001, (4-{[4-(1-Benzyl-piperidin-4-ylamino)-6-morpholin-4-yl-pyrimidin-2-ylamino]-methyl}-[1,2,3]triazol-1-yl)-acetic Acid Hydrochloride Salt], the activation at 1 µM is, setting by setting: under setting [3], -6 ± 0.3%; under setting [2], -6%.
Take `O=P(O)(O)CCN1CCC(Nc2cc(N3CCOCC3)nc(NCc3ccc(CCO)cc3)n2)CC1` [CN019]: the activation at 1 µM was -2 ± 1.2% under setting [3] and -2% under setting [2]. Further, the “protective efficacy” value (DRG neurons) is “inactive”.
Regarding `CCOP(=O)(CCN1CCC(Nc2cc(N3CCOCC3)nc(NCc3cn(CCCO)nn3)n2)CC1)OCC` [CN012, {2-[4-(2-{[1-(3-Hydroxy-propyl)-1H-[1,2,3]triazol-4-ylmethyl]-amino}-6-morpholin-4-yl-pyrimidin-4-ylamino)-piperidin-1-yl]-ethyl}-phosphonic Acid Diethyl Ester], the activation at 1 µM under setting [1] turned out to be 12 ± 1%, the activation at 1 µM under setting [3] was 9 ± 1% and the activation at 1 µM under setting [2] worked out at 9%. Under “DRG neurons”, the “protective efficacy” value is reported as “exhibited protective efficacy”.
Take `CCOP(=O)(CCN1CCC(Nc2cc(N3CCOCC3)nc(NCc3cn(CCC(C)O)nn3)n2)CC1)OCC` (centres unmarked) [CN014, {2-[4-(2-{[1-(3-Hydroxy-butyl)-1H-[1,2,3]triazol-4-ylmethyl]-amino}-6-morpholin-4-yl-pyrimidin-4-ylamino)-piperidin-1-yl]-ethyl}-phosphonic Acid Diethyl Ester]: the activation at 1 µM runs as follows: under setting [3], 9 ± 2%; under setting [2], 9%. For the same compound, the “protective efficacy” value (DRG neurons) is “exhibited protective efficacy”.
As to `O=P(O)(O)CCN1CCC(Nc2cc(N3CCSCC3)nc(NCc3cn(CCCO)nn3)n2)CC1` [CN023, {2-[4-(2-{[1-(3-Hydroxy-propyl)-1H-[1,2,3]triazol-4-ylmethyl]-amino}-6-thiomorpholin-4-yl-pyrimidin-4-ylamino)-piperidin-1-yl]-ethyl}-phosphonic Acid Hydrobromide Salt], the activation at 1 µM is, setting by setting: under setting [1], 4 ± 1.43%; under setting [2], 4%.
Consider `COC(=O)CCOCCCn1cc(CNc2nc(NC3CCN(Cc4ccc5ccccc5c4)CC3)cc(N3CCOCC3)n2)nn1` [CN005, 3-[3-(4-{[4-Morpholin-4-yl-6-(1-naphthalen-2-ylmethyl-piperidin-4-ylamino)-pyrimidin-2-ylamino]-methyl}-[1,2,3]triazol-1-yl)-propoxy]-propionic Acid Methyl Ester], for which the activation at 1 µM by setting is: under setting [3], -3 ± 0.41%; under setting [2], -3%.
The like results for `NCCOCCn1cc(CNc2nc(NC3CCN(C(=O)CCNC(=O)C4(O)CC(O)C(O)C(O)C4)CC3)cc(N3CCOCC3)n2)nn1` (centres unmarked) [CN008, 1,3,4,5-Tetrahydroxy-cyclohexanecarboxylic Acid (3-{4-[2-({1-[2-(2-Amino-ethoxy)-ethyl]-1H-[1,2,3]triazol-4-ylmethyl}-amino)-6-morpholin-4-yl-pyrimidin-4-ylamino]-piperidin-1-yl}-3-oxo-propyl)-amide Hydrochloride Salt] were, in that order, 4 ± 1.44% and 4%.
Turning to `O=P(O)(O)CCN1CCC(Nc2cc(N3CCOCC3)nc(NCc3cn(CCCCO)nn3)n2)CC1` [CN021, {2-[4-(2-{[1-(4-Hydroxy-butyl)-1H-[1,2,3]triazol-4-ylmethyl]-amino}-6-morpholin-4-yl-pyrimidin-4-ylamino)-piperidin-1-yl]-ethyl}-phosphonic Acid Hydrobromide Salt], the activation at 1 µM by setting is: under setting [1], 8 to 11%; under setting [2], 11%.
As for `NCCCn1cc(CNc2nc(NC3CCN(C(=O)CCNC(=O)C4(O)CC(O)C(O)C(O)C4)CC3)cc(N3CCOCC3)n2)nn1` (centres unmarked) [CN006, 1,3,4,5-Tetrahydroxy-cyclohexanecarboxylic Acid {3-[4-(2-{[1-(3-Amino-propyl)-1H-[1,2,3]triazol-4-ylmethyl]-amino}-6-morpholin-4-yl-pyrimidin-4-ylamino)-piperidin-1-yl]-3-oxo-propyl}-amide Hydrochloride Salt], the activation at 1 µM under setting [3] turned out to be 4 ± 1.44% and the activation at 1 µM under setting [2] turned out to be 4%.
Turning to `OCCCn1cc(CNc2nc(NC3CCN(Cc4ccccc4)CC3)cc(N3CCOCC3)n2)nn1` [CN004, 3-(4-{[4-(1-Benzyl-piperidin-4-ylamino)-6-morpholin-4-yl-pyrimidin-2-ylamino]-methyl}-[1,2,3]triazol-1-yl)-propan-1-ol], the activation at 1 µM runs as follows: under setting [1], -1 ± 3.2%; under setting [3], 1 ± 3.2%; under setting [2], 1%.
On to `CCOP(=O)(CCN1CCC(Nc2cc(N3CCOCC3)nc(NCc3ccc(CCO)cc3)n2)CC1)OCC` [CN018, Diethyl(2-(4-((2-((4-(2-hydroxyethyl)benzyl)amino)-6-morpholinopyrimidin-4-yl)amino)piperidin-1-yl)ethyl)phosphonate], for which the activation at 1 µM by setting is: under setting [3], 3 ± 2.2%; under setting [2], 3%. Further, the “protective efficacy” value (DRG neurons) is “inactive”.
The like results for `COC(=O)CCN1CCC(Nc2cc(N3CCOCC3)nc(NCc3cn(CCCO)nn3)n2)CC1` [CN009, 3-[4-(2-{[1-(3-Hydroxy-propyl)-1H-[1,2,3]triazol-4-ylmethyl]-amino}-6-morpholin-4-yl-pyrimidin-4-ylamino)-piperidin-1-yl]-propionic Acid Methyl Ester] were, in that order, 15 ± 1.28%, 15% and “exhibited protective efficacy”.
As to `COC(=O)CCOCCCn1cc(CNc2nc(NC3CCN(Cc4ccccc4)CC3)cc(N3CCOCC3)n2)nn1` [CN002, 3-[3-(4-{[4-(1-Benzyl-piperidin-4-ylamino)-6-morpholin-4-yl-pyrimidin-2-ylamino]-methyl}-[1,2,3]triazol-1-yl)-propoxy]-propionic Acid Methyl Ester], the activation at 1 µM was -4 ± 0.81% under setting [3] and -4% under setting [2].
Consider `CCOP(=O)(CCN1CCC(Nc2cc(N3CCOCC3)nc(NCc3cn(CCC(C)(C)O)nn3)n2)CC1)OCC` [CN013, {2-[4-(2-{[1-(3-Hydroxy-3-methyl-butyl)-1H-[1,2,3]triazol-4-ylmethyl]-amino}-6-morpholin-4-yl-pyrimidin-4-ylamino)-piperidin-1-yl]-ethyl}-phosphonic Acid Diethyl Ester], for which the activation at 1 µM is 6 ± 1.17% under setting [3] and 6% under setting [2].
